According to patent publication US5554359A, “Pigmentation enhancer and method” (priority 1994, dated 1996):
*1 amine or outer side, *2 acyl side, *3 side chain or, on linkers, in order; H or OH if unused. Where a SMILES comes first, the peptide text is derived from it. Bridges are numbered along the chain shown (N, C = ends). Roman numbers before positions name the chains, in order. [ ]: non-standard residue; d: D form. Actinocin(9to1) = Cc1c2oc3c(C)ccc(C(=O)[*:1])c3nc-2c(C(=O)[*:2])c(N)c1=O; NMeV = CN[C@H](C(=O)O)C(C)C; Sar = CNCC(=O)O

Assays:
Format in all cases: cell-based
[1] = system: tyrosinase activity in mouse melanoma cells; test: Tyrosinase activity in Cloudman S91/mouse melanoma cells, earlier studies; conditions: MSH-stimulated tyrosinase activity
Description: The MSH response in these cells can be mimicked by treatment of cells with either cAMP analogues such as dbcAMP (dibutyryl cyclic AMP) or 8-bromo cAMP, or with inhibitors of phosphodiesterase activity such as theophylline and IBMX. […] Although it is clear that cAMP is the second messenger for MSH action, tyrosinase activity is not altered by direct incubation with activated protein kinase A, nor is tyrosinase directly phosphorylated by this kinase. Even though cAMP levels rise within minutes of treatment of cells with MSH, no increases in tyrosinase activity are detectable until 6-9 hours after exposure of cells to hormone. […] In an effort to further delineate the cellular pathways involved in the MSH stimulation of tyrosinase activity, we examined the transcriptional and translational requirements for MSH action. […] However, other studies have shown that tyrosinase may be activated in melanoma cells treated with MSH. Discussed herein are studies carried out to examine the contributions of induction and activation to the overall MSH stimulation of tyrosinase activity in melanoma cells. Further, studies on the regulation of tyrosinase in normal human melanocytes are also described and compared to those from melanoma cells.
Even more elaborate models involving an activation of tyrosinase via internalized MSH receptors have been proposed. Evidence for tyrosinase inhibitors in mouse melanocytes and melanoma has been reported by many investigators, but no such molecules have yet been isolated.

[2] = system: tyrosinase activity in human melanocytes from white-skinned individuals; test: Tyrosinase activity in human melanocytes from white skin
Description: (§1) The mouse melanoma cell lines used to study the effects of lysosomotropic agents herein were the Cloudman S91 cell line (ATCC no. CCL 53.1) and two subclones of this line developed in our laboratory, the amelanotic line, AM-7, and a melanotic line, MEL-11A. All melanoma cell lines were grown in Ham's F-10 nutrient medium supplemented with 10% horse serum, penicillin (100 units/ml), and streptomycin (100 μg/ml). The normal human melanocyte cell strains used in this study were derived from foreskins of either neonares or from boys 2-6 years old. Human melanocyte cultures were grown in Ham's F-10 nutrient medium supplemented with 10% horse serum, 5% fetal bovine serum (FBS), 32 nM TPA (12-O-tetradecanoylphorbol 13-acetate), 10^-4 M IBMX(3-isobutyl-1-methylxanthine), penicillin (100 units/ml), and streptomycin (100 μg/ml).
(§2) To determine tyrosinase activity in situ in either melanoma cells or in human melanocyte cultures, the tyrosine hydroxylase activity of the enzyme was determined. Cells were seeded into 60-mm culture dishes at 2×10^5 cells/dish and allowed to attach overnight. The medium was then exchanged for the appropriate growth medium supplemented with 1 μCi/ml of [^3 H]tyrosine (L-ring-3,5-^3 H]-tyrosine, DuPont New England Nuclear), and with hormones, where indicated. Cells were grown in labeled medium for 24 hours, and at this time, the medium was removed and assayed for the presence of ^3 H2 O using the charcoal absorption method of Pomerantz. Tyrosinase activity in cell homogenates was determined by sonicating cell pellets in 0.1-M sodium phosphate buffer (pH 6.8) and then incubating 50-μl aliquots in 0.5 ml of a reaction mixture containing 0.1-mM tyrosine, 2 μCi/ml of [^3 H]tyrosine, 0.1-mM L-DOPA (dihydroxyphenylalanine), and 0.1 mM PMSF (phenylmethylsulfonyl fluoride) at 37° C. for 2 hours. Reactions were terminated by the addition of 1 ml of charcoal (10% w/v in 0.1-N HCl). Samples were centrifuged, and the supernatants removed for determination of the amount of ^3 H2 O produced.
(§3) Dose/response parameters for ammonium chloride action were determined. […] Since tyrosinase is the rate-limiting enzyme for melanin synthesis, the stimulation of this enzyme by ammonium chloride should lead to increased melanin content of stimulated cells. […] Ammonium chloride increased tyrosinase activity in melanocytes from white-skinned individuals twenty-fold within 24 hours and by this time melanin contents had increased two-fold. Two other lysosomotropic agents, monensin and nigericin, were tested for their effects on tyrosinase activity. […] Thus, lysosomotropic agents have the ability to stimulate tyrosinase activity and melanin production in human melanocytes derived from white-skinned individuals, and to reduce melanin production in melanocytes from black-skinned people.

[3] = system: tyrosinase activity in human melanocytes from black individuals; test: Tyrosinase activity in human melanocytes from black skin; conditions: 10 mM
Description: as §1, with “Human melanocyte cultures were grown in Ham's F-10 nutrient medium supplemented with 10% horse serum, 5% fetal bovine serum (FBS), 32 nM TPA (12-O-tetradecanoylphorbol 13-acetate), 10^-4 M IBMX(3-isobutyl-1-methylxanthine), penicillin (100 units/ml), and streptomycin (100 μg/ml).” left out
(§4) To determine tyrosinase activity in situ in either melanoma cells or in human melanocyte cultures, the tyrosine hydroxylase activity of the enzyme was determined. […] Tyrosinase activity in cell homogenates was determined by sonicating cell pellets in 0.1-M sodium phosphate buffer (pH 6.8) and then incubating 50-μl aliquots in 0.5 ml of a reaction mixture containing 0.1-mM tyrosine, 2 μCi/ml of [^3 H]tyrosine, 0.1-mM L-DOPA (dihydroxyphenylalanine), and 0.1 mM PMSF (phenylmethylsulfonyl fluoride) at 37° C. for 2 hours. […]
Dose/response parameters for ammonium chloride action were determined. […]

[4] = system: tyrosinase activity in mouse melanoma cells; test: Tyrosinase responses in mouse melanoma cells (Table 6)
Description: as §1
as §2, with “produced. […]” for “produced.”

[5] = system: tyrosinase activity in AM-7 cells; test: Tyrosinase activity in amelanotic mouse melanoma clone AM-7
Description: as §1, §4

[6] = system: tyrosinase activity in MEL-11A cells; test: Tyrosinase activity in melanotic mouse melanoma clone MEL-11A; conditions: MSH 10^-7 M or ammonium chloride 10 mM; 24 h; FIG. 4 bottom
Description: as §1, §4

[7] = system: melanin in human melanocytes; test: Melanin content in human melanocytes
Description: as §1
The amount of melanin in melanoma cells or in melanocytes was determined by incubating cell pellets in 2 ml of 1-N NaOH for 48 hours at 37° C. and then measuring the solubilized melanin at 400 nm.
as §3

[8] = system: tyrosinase activity in human melanocytes; test: Tyrosinase responses in human melanocytes (Table 6); conditions: Table 6 text
Description: as §1, §2
Hormone responsiveness in human melanocyte cell cultures were examined (for these studies, melanocytes derived from skin type III were used). […] Tyrosinase activity and melanin content typically double with a 48-hour exposure to IBMX. […] The steroid hormones, for the most part, caused little, if any, change in tyrosinase activity at the concentrations used.

[9] = within 24 hours, white-skinned individuals

Cc1c2oc3c(C)ccc(C(=O)N[C@@H]4C(=O)N[C@H](C(C)C)C(=O)N5CCC[C@H]5C(=O)N(C)CC(=O)N(C)[C@@H](C(C)C)C(=O)O[C@@H]4C)c3nc-2c(C(=O)N[C@@H]2C(=O)N[C@H](C(C)C)C(=O)N3CCC[C@H]3C(=O)N(C)CC(=O)N(C)[C@@H](C(C)C)C(=O)O[C@@H]2C)c(N)c1=O [actinomycin D] (I: T[dV]P[Sar][NMeV] / II: T[dV]P[Sar][NMeV]; ester I:1-I:C, II:1-II:C; linker I:N-II:N via Actinocin(9to1))
hormonal induction of enzyme activity [1]: completely blocked

Cl.N [Ammonium chloride, ammonium chloride]
Tyrosinase Activity ([2]; 10 mM, 48 hours, cell strain #84W, FIG. 5): markedly elevated
tyrosinase activity in melanocytes derived from white skin ([2]; 10 mM, footnote c of Table 6): stimulates tyrosinase activity
concentration of maximal stimulation of tyrosinase activity ([2]; cell strain 69W, 48 hours, FIG. 6): 7.5 mM
stimulation of tyrosinase activity ([2]; cell strain 69W, up to four hours, FIG. 8): effective in stimulating tyrosinase activity
increase in tyrosinase activity [2, 9]: twenty-fold
Tyrosinase Activity ([3]; 48 hours, cell strain #90A6, FIG. 5): depressed
tyrosinase activity in highly melanized melanocytes ([3]; black skin types, footnote c of Table 6): markedly inhibite
Effect on Tyrosinase Activity, Mouse Melanoma ([4]; Table 6, 10^-7 M except IBMX 10^-4 M, theophylline 1 mM, ammonium chloride 10 mM, A23187 not given): ++ (>300%)
tyrosinase activity in mouse melanoma cells ([4]; Table 6 text): stimulates tyrosinase activity
stimulation of tyrosinase activity in presence of cycloheximide ([5]; 10 mM ammonium chloride with or without cycloheximide, data not shown): stimulation occurred in cells treated with or without cycloheximide
increase in tyrosinase activity ([5]; 10 mM ammonium chloride, 24 h, FIG. 4 top): two-fold increase
increase in tyrosinase activity [6]: four-fold increase
melanin versus untreated cells ([7]; 10 mM, 3 days, cell strain 69W, FIG. 7): twice as much melanin than untreated cells
increase in melanin contents [7, 9]: two-fold
tyrosinase activity in human melanocytes [8]: stimulates tyrosinase activity

α-amanitin
hormonal induction of enzyme activity [1]: completely blocked

C[C@@H]1C[C@@H]([C@H](O)CC2CC(=O)NC(=O)C2)C(=O)[C@@H](C)C1 [cycloheximide]
hormonal induction of enzyme activity [1]: completely blocked
